# Test results published in article PMC8222254, “Self-assembly of an anion receptor with metal-dependent kinase inhibition and potent in vitro anti-cancer properties” (Nature Communications, 2021).
# Values joined by “and” are separate entries in the source; they are usually repeats but may differ in a detail not shown here. Identical values can stand only once.
# Experiments:
# Assay in all cases: Kinase inhibition screen, cell-free 33P ATP assay at 10 μM
# Type in all cases: biochemical
# [1] = target: T1, 140 purified human kinases (Homo sapiens, UniProt Q8IW41); conditions: PRAK
# T1 sequence (Q8IW41 1-473): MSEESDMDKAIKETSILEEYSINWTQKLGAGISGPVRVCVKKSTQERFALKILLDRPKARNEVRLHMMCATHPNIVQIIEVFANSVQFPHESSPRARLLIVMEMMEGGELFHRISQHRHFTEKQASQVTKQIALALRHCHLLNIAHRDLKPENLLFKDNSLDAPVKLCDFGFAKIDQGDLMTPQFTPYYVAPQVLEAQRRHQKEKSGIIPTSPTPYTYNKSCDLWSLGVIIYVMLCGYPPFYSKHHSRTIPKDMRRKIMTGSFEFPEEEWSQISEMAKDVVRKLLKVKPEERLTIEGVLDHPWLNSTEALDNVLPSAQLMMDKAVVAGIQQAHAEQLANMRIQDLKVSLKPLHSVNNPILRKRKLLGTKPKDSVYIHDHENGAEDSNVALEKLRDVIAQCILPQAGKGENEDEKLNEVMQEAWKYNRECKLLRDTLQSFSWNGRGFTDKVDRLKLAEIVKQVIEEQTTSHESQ
# Summary of the method: (§1)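 Each complex tested in duplicate at 10 μM; cell-free radiometric assay using ^33P ATP on purified enzymes. Hits mapped by HGNC symbol onto the kinome tree.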
# [2] = target: 140 purified human kinases (Homo sapiens, UniProt Q96RR4); conditions: CAMKKb
# Summary of the method: as §1
# [3] = target: 140 purified human kinases (Homo sapiens, UniProt Q9H4A3)
# Summary of the method: as §1
# [4] = target: 140 purified human kinases (Homo sapiens, UniProt P27361)
# Summary of the method: as §1
# [5] = target: 140 purified human kinases (Homo sapiens, UniProt Q16539); conditions: p38a MAPK
# Summary of the method: as §1
# [6] = target: T2, 140 purified human kinases (Homo sapiens, UniProt Q92630)
# T2 sequence (Q92630 1-601): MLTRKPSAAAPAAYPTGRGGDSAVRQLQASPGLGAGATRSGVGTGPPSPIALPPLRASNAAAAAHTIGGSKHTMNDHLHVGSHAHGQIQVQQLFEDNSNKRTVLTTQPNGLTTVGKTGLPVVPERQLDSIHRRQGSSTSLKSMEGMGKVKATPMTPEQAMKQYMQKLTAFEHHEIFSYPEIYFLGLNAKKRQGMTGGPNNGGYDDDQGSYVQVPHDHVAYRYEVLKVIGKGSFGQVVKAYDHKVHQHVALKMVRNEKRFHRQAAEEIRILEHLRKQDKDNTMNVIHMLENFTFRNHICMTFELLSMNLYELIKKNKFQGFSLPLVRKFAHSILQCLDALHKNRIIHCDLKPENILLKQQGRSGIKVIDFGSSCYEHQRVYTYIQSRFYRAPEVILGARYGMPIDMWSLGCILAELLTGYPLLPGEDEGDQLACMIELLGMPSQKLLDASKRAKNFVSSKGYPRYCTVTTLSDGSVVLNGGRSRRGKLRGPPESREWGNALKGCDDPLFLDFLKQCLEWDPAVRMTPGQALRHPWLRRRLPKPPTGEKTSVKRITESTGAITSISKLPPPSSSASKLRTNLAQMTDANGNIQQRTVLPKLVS
# Summary of the method: as §1
# [7] = target: T3, 140 purified human kinases (Homo sapiens, UniProt Q15139)
# T3 sequence (Q15139 1-912): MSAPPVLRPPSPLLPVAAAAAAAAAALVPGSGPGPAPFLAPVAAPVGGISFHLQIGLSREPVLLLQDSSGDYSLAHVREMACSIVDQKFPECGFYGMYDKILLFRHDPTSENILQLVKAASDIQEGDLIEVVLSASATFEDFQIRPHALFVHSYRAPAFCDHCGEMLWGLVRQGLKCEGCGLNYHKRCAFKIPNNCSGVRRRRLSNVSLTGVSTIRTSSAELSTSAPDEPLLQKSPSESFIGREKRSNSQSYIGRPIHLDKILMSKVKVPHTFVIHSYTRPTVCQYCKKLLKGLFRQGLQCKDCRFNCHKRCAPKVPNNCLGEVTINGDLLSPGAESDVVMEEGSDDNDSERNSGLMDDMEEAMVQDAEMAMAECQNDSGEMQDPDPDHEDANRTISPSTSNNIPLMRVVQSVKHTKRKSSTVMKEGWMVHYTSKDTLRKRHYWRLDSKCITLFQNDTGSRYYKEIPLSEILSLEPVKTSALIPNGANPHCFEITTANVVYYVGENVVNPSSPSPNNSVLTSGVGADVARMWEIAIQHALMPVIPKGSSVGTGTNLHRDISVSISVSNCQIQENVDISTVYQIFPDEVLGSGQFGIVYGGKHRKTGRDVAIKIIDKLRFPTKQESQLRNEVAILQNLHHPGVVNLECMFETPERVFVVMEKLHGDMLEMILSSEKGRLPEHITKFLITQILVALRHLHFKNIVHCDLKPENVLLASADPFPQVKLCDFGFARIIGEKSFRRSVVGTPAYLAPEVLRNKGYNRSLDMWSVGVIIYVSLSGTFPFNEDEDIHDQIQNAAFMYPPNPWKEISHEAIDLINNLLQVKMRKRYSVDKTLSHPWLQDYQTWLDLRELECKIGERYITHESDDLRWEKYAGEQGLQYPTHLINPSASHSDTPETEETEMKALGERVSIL
# Summary of the method: as §1
# Sequence of 140 purified human kinases (Homo sapiens, UniProt Q96RR4) (Q96RR4 whole entry): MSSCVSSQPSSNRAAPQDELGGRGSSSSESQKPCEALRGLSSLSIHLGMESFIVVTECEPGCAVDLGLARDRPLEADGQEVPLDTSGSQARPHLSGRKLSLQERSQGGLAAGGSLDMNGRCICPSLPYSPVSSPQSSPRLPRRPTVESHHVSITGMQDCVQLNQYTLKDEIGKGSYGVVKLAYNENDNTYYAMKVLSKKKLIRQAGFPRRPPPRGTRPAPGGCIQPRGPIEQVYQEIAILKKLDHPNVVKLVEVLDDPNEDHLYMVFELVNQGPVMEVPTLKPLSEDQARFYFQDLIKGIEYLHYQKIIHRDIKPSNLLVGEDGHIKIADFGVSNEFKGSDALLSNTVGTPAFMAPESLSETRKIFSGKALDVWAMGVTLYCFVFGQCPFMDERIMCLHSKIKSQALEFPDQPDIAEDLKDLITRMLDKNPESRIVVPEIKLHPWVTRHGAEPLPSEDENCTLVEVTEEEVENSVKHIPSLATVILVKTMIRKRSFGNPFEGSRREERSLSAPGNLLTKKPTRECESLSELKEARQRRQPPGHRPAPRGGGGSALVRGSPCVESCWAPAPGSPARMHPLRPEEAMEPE
# Sequence of 140 purified human kinases (Homo sapiens, UniProt P27361) (P27361 whole entry): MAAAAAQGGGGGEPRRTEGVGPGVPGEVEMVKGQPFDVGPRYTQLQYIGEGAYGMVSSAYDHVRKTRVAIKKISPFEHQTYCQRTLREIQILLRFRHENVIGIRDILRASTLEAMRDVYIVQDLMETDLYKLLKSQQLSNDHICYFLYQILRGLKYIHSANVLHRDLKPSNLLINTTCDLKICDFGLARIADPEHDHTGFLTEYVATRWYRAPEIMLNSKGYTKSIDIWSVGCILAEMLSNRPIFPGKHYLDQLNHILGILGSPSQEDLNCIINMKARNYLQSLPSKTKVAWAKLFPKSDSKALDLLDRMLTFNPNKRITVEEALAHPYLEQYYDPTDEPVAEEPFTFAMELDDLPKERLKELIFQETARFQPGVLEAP
# Sequence of 140 purified human kinases (Homo sapiens, UniProt Q9H4A3) (Q9H4A3 whole entry): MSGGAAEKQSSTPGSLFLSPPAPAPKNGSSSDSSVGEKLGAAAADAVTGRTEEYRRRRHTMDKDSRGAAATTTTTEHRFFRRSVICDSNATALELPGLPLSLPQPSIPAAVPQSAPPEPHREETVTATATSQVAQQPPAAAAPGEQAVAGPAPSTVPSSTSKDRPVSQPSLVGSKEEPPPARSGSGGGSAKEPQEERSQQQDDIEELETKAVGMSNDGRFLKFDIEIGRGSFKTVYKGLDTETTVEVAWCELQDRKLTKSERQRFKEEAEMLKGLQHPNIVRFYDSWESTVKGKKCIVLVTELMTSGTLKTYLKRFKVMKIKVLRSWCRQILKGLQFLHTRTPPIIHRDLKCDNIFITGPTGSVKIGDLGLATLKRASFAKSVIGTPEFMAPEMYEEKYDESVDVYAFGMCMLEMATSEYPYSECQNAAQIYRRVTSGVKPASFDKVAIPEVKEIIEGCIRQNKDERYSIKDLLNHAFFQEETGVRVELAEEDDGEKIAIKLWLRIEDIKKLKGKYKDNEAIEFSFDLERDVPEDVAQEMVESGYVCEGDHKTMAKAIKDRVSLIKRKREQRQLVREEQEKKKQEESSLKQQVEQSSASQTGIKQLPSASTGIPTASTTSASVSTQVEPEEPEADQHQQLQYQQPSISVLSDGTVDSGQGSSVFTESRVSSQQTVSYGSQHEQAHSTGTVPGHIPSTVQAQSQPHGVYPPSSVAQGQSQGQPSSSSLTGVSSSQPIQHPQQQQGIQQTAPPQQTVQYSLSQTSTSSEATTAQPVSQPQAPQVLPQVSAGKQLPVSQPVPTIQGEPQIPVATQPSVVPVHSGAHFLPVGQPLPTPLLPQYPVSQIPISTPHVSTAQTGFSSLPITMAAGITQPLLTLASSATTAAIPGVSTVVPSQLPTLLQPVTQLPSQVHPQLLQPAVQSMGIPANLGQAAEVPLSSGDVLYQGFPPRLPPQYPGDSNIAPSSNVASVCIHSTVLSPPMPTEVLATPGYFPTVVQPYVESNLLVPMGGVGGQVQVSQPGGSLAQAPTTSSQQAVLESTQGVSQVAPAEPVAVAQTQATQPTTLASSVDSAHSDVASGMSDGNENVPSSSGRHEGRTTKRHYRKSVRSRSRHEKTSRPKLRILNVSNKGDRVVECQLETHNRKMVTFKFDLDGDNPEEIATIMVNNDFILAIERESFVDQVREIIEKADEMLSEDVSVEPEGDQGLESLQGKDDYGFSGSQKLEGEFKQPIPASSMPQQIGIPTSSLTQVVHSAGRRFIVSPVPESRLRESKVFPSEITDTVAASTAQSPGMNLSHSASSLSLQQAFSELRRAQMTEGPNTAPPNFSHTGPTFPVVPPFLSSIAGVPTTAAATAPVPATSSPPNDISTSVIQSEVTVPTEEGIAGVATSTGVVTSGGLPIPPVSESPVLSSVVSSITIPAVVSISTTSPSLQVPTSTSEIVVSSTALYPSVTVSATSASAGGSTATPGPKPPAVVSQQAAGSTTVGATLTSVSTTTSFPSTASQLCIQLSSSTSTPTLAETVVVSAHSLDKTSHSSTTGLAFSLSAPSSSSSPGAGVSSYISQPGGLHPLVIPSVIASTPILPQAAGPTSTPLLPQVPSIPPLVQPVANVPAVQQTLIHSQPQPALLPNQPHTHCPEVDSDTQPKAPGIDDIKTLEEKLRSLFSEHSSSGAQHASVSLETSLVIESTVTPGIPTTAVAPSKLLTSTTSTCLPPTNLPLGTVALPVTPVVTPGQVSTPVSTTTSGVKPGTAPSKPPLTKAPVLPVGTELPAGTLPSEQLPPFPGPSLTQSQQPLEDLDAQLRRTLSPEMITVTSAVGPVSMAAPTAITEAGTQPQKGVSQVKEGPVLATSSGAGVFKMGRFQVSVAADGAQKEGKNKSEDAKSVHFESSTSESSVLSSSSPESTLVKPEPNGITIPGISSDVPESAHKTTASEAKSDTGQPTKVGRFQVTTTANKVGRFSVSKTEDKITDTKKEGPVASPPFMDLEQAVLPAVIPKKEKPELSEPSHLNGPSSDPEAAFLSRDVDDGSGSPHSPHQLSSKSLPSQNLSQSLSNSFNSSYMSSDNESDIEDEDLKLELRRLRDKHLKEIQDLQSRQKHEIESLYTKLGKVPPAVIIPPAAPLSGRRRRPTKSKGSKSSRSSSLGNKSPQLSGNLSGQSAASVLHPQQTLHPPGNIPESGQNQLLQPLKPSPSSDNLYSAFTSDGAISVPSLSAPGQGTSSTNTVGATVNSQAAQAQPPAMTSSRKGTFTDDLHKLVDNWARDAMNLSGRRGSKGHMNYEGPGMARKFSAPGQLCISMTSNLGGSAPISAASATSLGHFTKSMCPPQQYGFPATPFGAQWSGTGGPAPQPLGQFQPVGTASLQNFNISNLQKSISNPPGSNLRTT
# Sequence of 140 purified human kinases (Homo sapiens, UniProt Q16539) (Q16539 whole entry): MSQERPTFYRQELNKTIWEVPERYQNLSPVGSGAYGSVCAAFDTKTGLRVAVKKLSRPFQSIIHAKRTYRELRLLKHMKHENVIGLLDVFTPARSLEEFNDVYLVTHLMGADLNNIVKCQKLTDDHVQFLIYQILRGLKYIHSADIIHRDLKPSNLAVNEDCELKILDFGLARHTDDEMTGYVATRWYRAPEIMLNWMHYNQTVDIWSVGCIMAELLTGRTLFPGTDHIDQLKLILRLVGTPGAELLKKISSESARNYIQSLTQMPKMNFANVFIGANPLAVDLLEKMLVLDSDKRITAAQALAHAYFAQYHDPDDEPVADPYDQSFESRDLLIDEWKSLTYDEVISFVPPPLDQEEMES
smiles,measurement,setting,value
[Cu+2].[Cu+2].[Cu+2].c1ccc(-c2csc(NCCN(CCNc3nc(-c4ccccn4)cs3)CCNc3nc(-c4ccccn4)cs3)n2)nc1.c1ccc(-c2csc(NCCN(CCNc3nc(-c4ccccn4)cs3)CCNc3nc(-c4ccccn4)cs3)n2)nc1 [[L2Cu3]6+],% Inhibition Run 1,[1],79.7%
same,% Inhibition Run 2,[1],79.1%
same,"% Inhibition, Mean",[1],79%
same,mean % activity,[1],21%
same,% activity,[1]; Run 1,20.3%
same,% activity,[1]; Run 2,20.9%
same,% Inhibition Run 1,[2],42.1%
same,% Inhibition Run 2,[2],54.8%
same,"% Inhibition, Mean",[2],48%
same,mean % activity,[2],52%
same,% activity,[2]; Run 1,57.9%
same,% activity,[2]; Run 2,45.2%
same,% Inhibition Run 1,[3]; WNK1,12.1%
same,% Inhibition Run 2,[3]; WNK1,-2.6%
same,"% Inhibition, Mean",[3]; WNK1,4.75%
same,mean % activity,[3]; WNK1,95%
same,% activity,"[3]; WNK1, Run 1",87.9%
same,% activity,"[3]; WNK1, Run 2",102.6%
same,"% Activation, Mean value",[4]; ERK1,1.15%
same,% Inhibition Run 1,[4]; ERK1,6.5%
same,% Inhibition Run 2,[4]; ERK1,-8.8%
same,"% Inhibition, Mean",[4]; ERK1,-1.15%
same,mean % activity,[4]; ERK1,101%
same,% activity,"[4]; ERK1, Run 1",93.5%
same,% activity,"[4]; ERK1, Run 2",108.8%
same,% Inhibition Run 1,[5],12.7%
same,% Inhibition Run 2,[5],-5.2%
same,"% Inhibition, Mean",[5],3.75%
same,mean % activity,[5],96%
same,% activity,[5]; Run 1,87.3%
same,% activity,[5]; Run 2,105.2%
same,% Inhibition Run 1,[6]; DYRK2,27.2%
same,% Inhibition Run 2,[6]; DYRK2,-2.7%
same,"% Inhibition, Mean",[6]; DYRK2,12%
same,mean % activity,[6]; DYRK2,88%
same,% activity,"[6]; DYRK2, Run 1",72.8%
same,% activity,"[6]; DYRK2, Run 2",102.7%
same,% Inhibition Run 1,[7]; PKD1,73%
same,% Inhibition Run 2,[7]; PKD1,71.7%
same,"% Inhibition, Mean",[7]; PKD1,72%
same,mean % activity,[7]; PKD1,28%
same,% activity,"[7]; PKD1, Run 1",27%
same,% activity,"[7]; PKD1, Run 2",28.3%
CC(=O)[O-].CC(=O)[O-].CC(=O)[O-].CC(=O)[O-].CC(=O)[O-].CC(=O)[O-].[Zn+2].[Zn+2].[Zn+2].c1ccc(-c2csc(NCCN(CCNc3nc(-c4ccccn4)cs3)CCNc3nc(-c4ccccn4)cs3)n2)nc1.c1ccc(-c2csc(NCCN(CCNc3nc(-c4ccccn4)cs3)CCNc3nc(-c4ccccn4)cs3)n2)nc1 [[L2Zn3]6+],"% Inhibition, Mean",[1],81%
same,"% Inhibition, Run 1 / Run 2",[1],83% and 79%
same,mean % activity,[1],19%
same,% Activity inhibition Mean,[1]; 10 µM,81.0%
same,% Activity inhibition Run 1,[1]; 10 µM,83%
same,% Activity inhibition Run 2,[1]; 10 µM,79%
same,% Activity remaining Run 1,[1]; 10 µM,17%
same,% Activity remaining Run 2,[1]; 10 µM,21%
same,% activity,[1]; duplicate runs,17% and 21%
same,"% Inhibition, Mean",[2],44%
same,"% Inhibition, Run 1 / Run 2",[2],44%
same,mean % activity,[2],56%
same,% activity,[2]; duplicate runs,57% and 56%
same,"% Inhibition, Mean",[3]; WNK1,2.3%
same,mean % activity,[3]; WNK1,98%
same,% activity,"[3]; WNK1, duplicate runs",90% and 106%
same,"% Activation, Mean value",[4]; ERK1,5%
same,"% Inhibition, Mean",[4]; ERK1,-5%
same,mean % activity,[4]; ERK1,105%
same,% activity,"[4]; ERK1, duplicate runs",115% and 95%
same,"% Inhibition, Mean",[5],16%
same,mean % activity,[5],84%
same,% activity,[5]; duplicate runs,72% and 95%
same,"% Activation, Mean value",[6]; DYRK2,4.5%
same,"% Inhibition, Mean",[6]; DYRK2,-4.5%
same,mean % activity,[6]; DYRK2,105%
same,% activity,"[6]; DYRK2, duplicate runs",97% and 112%
same,"% Inhibition, Mean",[7]; PKD1,45%
same,"% Inhibition, Run 1 / Run 2",[7]; PKD1,50% and 40%
same,mean % activity,[7]; PKD1,55%
same,% activity,"[7]; PKD1, duplicate runs",50% and 60%
